Data as given in US20230085307A1, “PYRIDAZINONE COMPOUND AND HERBICIDE” (NISSAN CHEMICAL CORPORATION, priority 2019, published 2023).

What was measured:
velvetleaf = assay: Test Example 5: herbicidal effect by foliage application, plastic box (Table 20, symbol M); format: in vivo, velvetleaf (Abutilon theophrasti); details: foliage application; for effect on velvetleaf (M): 3 weeks after application; for M: velvetleaf, herbicidal effect (criteria 0-5): AAH 320 g/ha
In short: (§1)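 Plants sown in sterilized diluvial soil and grown 14 days in a greenhouse at 25° C to 30° C, then sprayed on the foliage with the compound's emulsion diluted in water to a predetermined herbicide amount. Injury to weeds and crops scored three weeks after application on a visual rating scale.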

late watergrass = assay: Test Example 1: herbicidal activity, application before weed generation under submerged conditions (Table 16, symbol A); format: in vivo, late watergrass (Echinochloa oryzicola); details: 320 g/ha applied herbicide
In short: (§2)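 Emulsion formulation, water-diluted to set dose, was put onto the flooded surface (4 cm depth, alluvial soil) the same day weeds were sown and 2.5-leaf rice transplanted. After 3 weeks at 25-30 °C under glass, each species was rated 0 (≤5% kill) to 5 (≥90% kill).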

blackgrass = assay: Test Example 4: herbicidal effect by soil treatment (Table 19, symbol J); format: in vivo, blackgrass (Alopecurus myosuroides); details: for herbicidal effect rating, J: blackgrass: 320 g/ha; for herbicidal effect on J: blackgrass: amount of applied herbicide 320 g/ha
In short: (§3)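 Three weeks of greenhouse growth at 25° C. to 30° C. followed a uniform surface spray of water-diluted emulsion at a predetermined herbicide amount. Seeds had been sown beforehand under about 1.5 cm of sterilized diluvial soil. Grading followed criteria set out in an earlier test.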

persian speedwell = assay: Test Example 4: herbicidal effect by soil treatment (Table 19, symbol R); format: in vivo, Persian speedwell (Veronica persica); details: for herbicidal effect rating, R: persian speedwell: 320 g/ha; for herbicidal effect on R: persian speedwell: amount of applied herbicide 320 g/ha
In short: as §3

oval-leafed pondweed [1] = assay: Test Example 1: herbicidal activity, application before weed generation under submerged conditions (Table 16, symbol C); format: in vivo, oval-leafed pondweed (Monochoria vaginalis); details: 320 g/ha applied herbicide
In short: as §2

false cleavers = assay: Test Example 5: herbicidal effect by foliage application, plastic box (Table 20, symbol Q); format: in vivo, false cleavers (Galium spurium); details: foliage application, 320 g/ha; for effect on false cleavers (Q): 3 weeks after application
In short: as §1

Chinese sprangletop = assay: Test Example 3: herbicidal effect by foliage application, Wagner pot (Table 18, symbol D); format: in vivo, chinese sprangletop (Leptochloa chinensis); details: for herbicidal effect on D (Chinese sprangletop), rating 0-5: 320 g/ha; for herbicidal effect on D: Chinese sprangletop: amount of applied herbicide 320 g/ha
In short: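 Plants were sown in alluvial soil held under 0.1–0.5 cm standing water and grown 14 days in a greenhouse at 25–30 °C. An emulsifiable formulation, water-diluted to the set dose, was then sprayed onto the foliage, and effects were scored three weeks later using previously defined criteria.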

green foxtail = assay: Test Example 5: herbicidal effect by foliage application, plastic box (Table 20, symbol G); format: in vivo, green foxtail (Setaria viridis); details: foliage application; for effect on green foxtail (G): 3 weeks after application; for G: green foxtail, herbicidal effect (criteria 0-5): AAH 320 g/ha
In short: as §1

oval-leafed pondweed [2] = assay: Test Example 2: herbicidal activity, application during weed generation under submerged conditions (Table 17, symbol C); format: in vivo, oval-leafed pondweed (Monochoria vaginalis); details: AAH 320 g/ha; application during weed generation, submerged conditions
In short: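 Steps: fill Wagner pots with alluvial soil; add water to give 4 cm depth; sow the species mixed; grow under glass at 25–30° C.; at 1–2 leaves apply water-diluted emulsion formulation to the water surface at a fixed herbicide amount; score after 3 weeks.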

windgrass = assay: Test Example 4: herbicidal effect by soil treatment (Table 19, symbol L); format: in vivo, windgrass (Apera spica-venti); details: for herbicidal effect rating, L: windgrass: 320 g/ha; for herbicidal effect on L: windgrass: amount of applied herbicide 320 g/ha
In short: as §3

Japanese bulrush = assay: Test Example 1: herbicidal activity, application before weed generation under submerged conditions (Table 16, symbol B); format: in vivo, Japanese bulrush (Schoenoplectus juncoides); details: 320 g/ha applied herbicide
In short: as §2

chickweed = assay: Test Example 5: herbicidal effect by foliage application, plastic box (Table 20, symbol P); format: in vivo, common chickweed (Stellaria media); details: foliage application, evaluated three weeks after application; for P: chickweed, herbicidal effect (criteria 0-5): AAH 320 g/ha
In short: as §1

[3] = 320 g/ha, evaluated three weeks after application
[4] = evaluated three weeks after application

| Compound | effect on velvetleaf (M) (velvetleaf; 320 g/ha) | Herbicidal effect on A: late watergrass (grade 0-5) (late watergrass) | herbicidal effect rating, J: blackgrass (blackgrass) | herbicidal effect rating, R: persian speedwell (persian speedwell) | Herbicidal effect on C: oval-leafed pondweed (grade 0-5) (oval-leafed pondweed [1]) | effect on false cleavers (Q) (false cleavers) | herbicidal effect on D (Chinese sprangletop), rating 0-5 (Chinese sprangletop) | effect on green foxtail (G) (green foxtail; 320 g/ha) | herbicidal effect rating, C: oval-leafed pondweed (oval-leafed pondweed [2]) | herbicidal effect rating, L: windgrass (windgrass) | Herbicidal effect on B: Japanese bulrush (grade 0-5) (Japanese bulrush) | M: velvetleaf, herbicidal effect (criteria 0-5) (velvetleaf; [4]) | herbicidal effect on J: blackgrass (blackgrass) | herbicidal effect on R: persian speedwell (persian speedwell) | herbicidal effect on D: Chinese sprangletop (Chinese sprangletop) | G: green foxtail, herbicidal effect (criteria 0-5) (green foxtail; [4]) | P: chickweed, herbicidal effect (criteria 0-5) (chickweed) | herbicidal effect on L: windgrass (windgrass) | other results |
| --- | --- | --- | --- | --- | --- | --- | --- | --- | --- | --- | --- | --- | --- | --- | --- | --- | --- | --- | --- |
| COc1ccc(-c2sc3ccc(F)cc3c2-c2c(O)c(C)nn(C)c2=O)cc1 [2-026] | 5 (Herbicidal rate of 90% or more (almost completely withered)) | 3 (Herbicidal rate of 40% or more and less than 70%) | 3 (Herbicidal rate of 40% or more and less than 70%) | 5 (Herbicidal rate of 90% or more (almost completely withered)) | 4 (Herbicidal rate of 70% or more and less than 90%) | 4 (Herbicidal rate of 70% or more and less than 90%) | 4 (Herbicidal rate of 70% or more and less than 90%) | 4 (Herbicidal rate of 70% or more and less than 90%) | 5 (Herbicidal rate of 90% or more (almost completely withered)) | 1 (Herbicidal rate of 5% or more and less than 20%) | 4 (Herbicidal rate of 70% or more and less than 90%) | – | – | – | – | – | – | – | – |
| CCCCOc1ccc(-c2sc3ccc(F)cc3c2-c2c(O)c(C)nn(C)c2=O)cc1 [2-036] | 5 (Herbicidal rate of 90% or more (almost completely withered)) | 3 (Herbicidal rate of 40% or more and less than 70%) | 0 (Herbicidal rate of 5% or less (almost no effect)) | 4 (Herbicidal rate of 70% or more and less than 90%) | 4 (Herbicidal rate of 70% or more and less than 90%) | 4 (Herbicidal rate of 70% or more and less than 90%) | 3 (Herbicidal rate of 40% or more and less than 70%) | 5 (Herbicidal rate of 90% or more (almost completely withered)) | 3 (Herbicidal rate of 40% or more and less than 70%) | 0 (Herbicidal rate of 5% or less (almost no effect)) | 4 (Herbicidal rate of 70% or more and less than 90%) | – | – | – | – | – | – | – | – |
| CON=C(C)c1ccc(-c2sc3ccc(F)cc3c2-c2c(O)c(C)nn(C)c2=O)cc1 [2-079] | – | 1 (Herbicidal rate of 5% or more and less than 20%) | 0 (Herbicidal rate of 5% or less (almost no effect)) | 5 (Herbicidal rate of 90% or more (almost completely withered)) | 1 (Herbicidal rate of 5% or more and less than 20%) | – | 4 (Herbicidal rate of 70% or more and less than 90%) | – | 2 (Herbicidal rate of 20% or more and less than 40%) | 0 (Herbicidal rate of 5% or less (almost no effect)) | 3 (Herbicidal rate of 40% or more and less than 70%) | – | – | – | – | – | – | – | herbicidal effect on M: velvetleaf (velvetleaf; [3]): 5 (Herbicidal rate of 90% or more (almost completely withered)); herbicidal effect on Q: false cleavers (false cleavers; [4]): 5 (Herbicidal rate of 90% or more (almost completely withered)); herbicidal effect on G: green foxtail (green foxtail; [3]): 5 (Herbicidal rate of 90% or more (almost completely withered)); herbicidal effect on P: chickweed (chickweed; 320 g/ha): 5 (Herbicidal rate of 90% or more (almost completely withered)) |
| CCOC(=O)Oc1c(C)nn(C)c(=O)c1-c1c(-c2ccc(OC(F)F)cc2)sc2ccc(F)cc12 [2-292] | – | 5 (Herbicidal rate of 90% or more (almost completely withered)) | – | – | 4 (Herbicidal rate of 70% or more and less than 90%) | – | – | – | 5 (Herbicidal rate of 90% or more (almost completely withered)) | – | 5 (Herbicidal rate of 90% or more (almost completely withered)) | 5 (Herbicidal rate of 90% or more (almost completely withered)) | 3 (Herbicidal rate of 40% or more and less than 70%) | 5 (Herbicidal rate of 90% or more (almost completely withered)) | 4 (Herbicidal rate of 70% or more and less than 90%) | 5 (Herbicidal rate of 90% or more (almost completely withered)) | 5 (Herbicidal rate of 90% or more (almost completely withered)) | 1 (Herbicidal rate of 5% or more and less than 20%) | – |
| Cc1nn(C)c(=O)c(-c2c(-c3ccc(OC(F)F)cc3)sc3ccc(F)cc23)c1OCC(=O)c1ccccc1 [2-305] | – | 3 (Herbicidal rate of 40% or more and less than 70%) | – | – | 2 (Herbicidal rate of 20% or more and less than 40%) | – | – | – | 0 (Herbicidal rate of 5% or less (almost no effect)) | – | 5 (Herbicidal rate of 90% or more (almost completely withered)) | 5 (Herbicidal rate of 90% or more (almost completely withered)) | 0 (Herbicidal rate of 5% or less (almost no effect)) | 3 (Herbicidal rate of 40% or more and less than 70%) | 5 (Herbicidal rate of 90% or more (almost completely withered)) | 5 (Herbicidal rate of 90% or more (almost completely withered)) | 5 (Herbicidal rate of 90% or more (almost completely withered)) | 0 (Herbicidal rate of 5% or less (almost no effect)) | – |
| CC(=O)c1ccc(-c2sc3ccc(F)cc3c2-c2c(O)c(C)nn(C)c2=O)cc1 [2-339] | – | 4 (Herbicidal rate of 70% or more and less than 90%) | – | – | 5 (Herbicidal rate of 90% or more (almost completely withered)) | – | – | – | 3 (Herbicidal rate of 40% or more and less than 70%) | – | 5 (Herbicidal rate of 90% or more (almost completely withered)) | 5 (Herbicidal rate of 90% or more (almost completely withered)) | 2 (Herbicidal rate of 20% or more and less than 40%) | 4 (Herbicidal rate of 70% or more and less than 90%) | 4 (Herbicidal rate of 70% or more and less than 90%) | 4 (Herbicidal rate of 70% or more and less than 90%) | 5 (Herbicidal rate of 90% or more (almost completely withered)) | 2 (Herbicidal rate of 20% or more and less than 40%) | – |
